Source: patent US8247211B2, “Glycopeptide antibiotics” (American Cyanamid Company, priority 2001, dated 2012)
≈ marks a conversion by molar mass, not a printed value.

Columns and labels:
Experiment in all cases: In vitro antibacterial evaluation: minimum inhibitory concentration (MIC), broth dilution method
Assay type in all cases: cell-based
[1] = test system: Staphylococcus sp.; conditions: 18 hours at 35° C.
Method in brief: (§1)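 NCCLS M7-A2 broth dilution with Mueller-Hinton II, testing 64-0.06 μg/mL antibiotic against 5×10^5 CFU/mL inocula. Test strains include recent methicillin-, penicillin- or vancomycin-resistant clinical isolates. MIC is the lowest concentration preventing growth.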

[2] = test system: Enterococcus sp.
Method in brief: as §1

[3] = test system: Escherichia coli
Method in brief: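 Values are minimum inhibitory concentrations, meaning the smallest antibiotic concentration that stops growth of the organism. They come from broth dilution in Muller-Hinton II […] per NCCLS guidance (M7-A2), using 5×10^5 CFU/mL and concentrations from 64 to 0.06 μg/mL.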

[4] = test system: Escherichia coli; remark: listed apart in the source

MIC Coagulase Negative Staphylococcus (GC 4547) [1]: 4 µg/mL (≈ 2.9 µM)
MIC Coagulase Negative Staphylococcus (GC 4547) ([1]; broth dilution): 4 µg/mL (≈ 2.9 µM)
MIC Coagulase Negative Staphylococcus (GC 4548) [1]: 4 µg/mL (≈ 2.9 µM)
MIC Coagulase Negative Staphylococcus (GC 4548) ([1]; broth dilution): 4 µg/mL (≈ 2.9 µM)
MIC Coagulase Negative Staphylococcus (GC 4549) [1]: 2 µg/mL (≈ 1.45 µM)
MIC Coagulase Negative Staphylococcus (GC 4549) ([1]; broth dilution): 2 µg/mL (≈ 1.45 µM)
MIC Coagulase Negative Staphylococcus (GC 4551) [1]: 8 µg/mL (≈ 5.81 µM)
MIC Coagulase Negative Staphylococcus (GC 4551) ([1]; broth dilution): 8 µg/mL (≈ 5.81 µM)
MIC Coagulase Negative Staphylococcus (GC 6257) [1]: 2 µg/mL (≈ 1.45 µM)
MIC Coagulase Negative Staphylococcus (GC 6257) ([1]; broth dilution): 2 µg/mL (≈ 1.45 µM)
MIC Staphylococcus aureus (ATCC 29213) [1]: 8 µg/mL (≈ 5.81 µM)
MIC Staphylococcus aureus (ATCC 29213) ([1]; broth dilution): 8 µg/mL (≈ 5.81 µM)
MIC Staphylococcus aureus (GC 1131) [1]: 8 µg/mL (≈ 5.81 µM)
MIC Staphylococcus aureus (GC 1131) ([1]; broth dilution): 8 µg/mL (≈ 5.81 µM)
MIC Staphylococcus aureus (GC 3051) [1]: 4 µg/mL (≈ 2.9 µM)
MIC Staphylococcus aureus (GC 3051) ([1]; broth dilution): 4 µg/mL (≈ 2.9 µM)
MIC Staphylococcus aureus (GC 3053) [1]: 8 µg/mL (≈ 5.81 µM)
MIC Staphylococcus aureus (GC 3053) ([1]; broth dilution): 8 µg/mL (≈ 5.81 µM)
MIC Staphylococcus aureus (GC 4541) [1]: 8 µg/mL (≈ 5.81 µM)
MIC Staphylococcus aureus (GC 4541) ([1]; broth dilution): 8 µg/mL (≈ 5.81 µM)
MIC Staphylococcus aureus (GC 4542) [1]: 8 µg/mL (≈ 5.81 µM)
MIC Staphylococcus aureus (GC 4542) ([1]; broth dilution): 8 µg/mL (≈ 5.81 µM)
MIC Staphylococcus aureus (GC 4544) [1]: 8 µg/mL (≈ 5.81 µM)
MIC Staphylococcus aureus (GC 4544) ([1]; broth dilution): 8 µg/mL (≈ 5.81 µM)
MIC Staphylococcus aureus (GC 4545) [1]: 4 µg/mL (≈ 2.9 µM)
MIC Staphylococcus aureus (GC 4545) ([1]; broth dilution): 4 µg/mL (≈ 2.9 µM)
MIC Staphylococcus aureus-SMITH (GC 4543) [1]: 8 µg/mL (≈ 5.81 µM)
MIC Staphylococcus aureus-SMITH (GC 4543) ([1]; broth dilution): 8 µg/mL (≈ 5.81 µM)
MIC Enterococcus avium (GC 4558) ([2]; Enterococcus avium (GC 4558)): 32 µg/mL (≈ 23.2 µM)
MIC Enterococcus faecalis (ATCC 29212) ([2]; Enterococcus faecalis (ATCC 29212)): 32 µg/mL (≈ 23.2 µM)
MIC Enterococcus faecalis (GC 4553) ([2]; Enterococcus faecalis (GC 4553)): 32 µg/mL (≈ 23.2 µM)
MIC Enterococcus faecalis (GC 4554) ([2]; Enterococcus faecalis (GC 4554)): 32 µg/mL (≈ 23.2 µM)
MIC Enterococcus faecalis (GC 6189) ([2]; Enterococcus faecalis (GC 6189)): 32 µg/mL (≈ 23.2 µM)
MIC Enterococcus faecium (GC 2243) ([2]; Enterococcus faecium (GC 2243)): 32 µg/mL (≈ 23.2 µM)
MIC Enterococcus faecium (GC 4556) ([2]; Enterococcus faecium (GC 4556)): 32 µg/mL (≈ 23.2 µM)
MIC Enterococcus faecium (GC 4557) ([2]; Enterococcus faecium (GC 4557)): 8 µg/mL (≈ 5.81 µM)
MIC Escherichia coli (GC 4559) ([3]; Escherichia coli (GC 4559)): >64 µg/mL
MIC Escherichia coli (GC 4560) ([3]; Escherichia coli (GC 4560)): 4 µg/mL (≈ 2.9 µM)
MIC Escherichia coli (ATCC 25922) [4]: >64 µg/mL
Compound: CC=C(C)C(=O)OC1C(CO)OC(OC2C(CO)OC(Oc3ccc(CC4NC(=O)C(C(C)c5ccccc5)NC(=O)CNC(=O)C(CO)NC(=O)C(C(O)C5CNC(=N)N5C5OC(CO)C(O)C(O)C5O)NC(=O)C(C(O)C5CNC(=N)N5)NC4=O)cc3)C(O)C2O)C(O)C1O (stereo not drawn) [Example 278b, Cyclo[glycyl-β-methylphenylalanyl-O-[4-O-[4-O-(2-methylbut-2-enoyl)hexopyranosyl]-hexopyranosyl]tyrosyl-3-(2-iminoimidazolidin-4-yl)seryl-3-(3-hexopyranosyl-2-imino-imidazolidin-4-yl)serylseryl]]
MIC Staphylococcus haemolyticus (GC 4546) [1]: 4 µg/mL (≈ 2.9 µM)
MIC Staphylococcus haemolyticus (GC 4546) ([1]; broth dilution): 4 µg/mL (≈ 2.9 µM)
